The values that follow come from US20240300941A1, “HPK1 INHIBITORS, PREPARATION METHOD AND APPLICATION THEREOF” (ZHUHAI YUFAN BIOTECHNOLOGIES CO., LTD., priority 2018, published 2024).

Molecules are shown by their SMILES. A value given as a limit tells only on which side of the number the result lay.

One test has as its target HPK1 (Homo sapiens (Human), UniProt Q92918). Briefly: HPK1 ADP-Glo enzyme assay. In kind it is biochemical. The note with it: HPK1 protein 5 nM, MBP and ATP substrate, ADP-Glo readout. On the procedure:
The buffer used in the enzyme assay contains 5 mM MOPS (pH=7.2), 2.5 mM β-Glycerol Phosphate, 0.4 mM EDTA, 1 mM EGTA, 0.05 mM DTT, 5 mM MgCl2. The compound was dissolved in 100% DMSO at the concentration was 10 mM. The initial concentration of the test was 5 uM, and ten data points were diluted by three-fold gradient, and each point was repeatedly measured twice. The HPK1 protein was purchased from Thermo (Cat. No. PV6355) and diluted to 2× stock solution at the concentration of 10 nM (the final concentration of the enzyme assay was 5 nM). 2.5 µl of 2×HPK1 protein was added to each well of the plate containing the test compound, centrifuged at 1000 rpm for 30 seconds, and then incubated at 25° C. for 15 minutes. MBP protein was purchased from Millipore (Cat. No. 13-110) and ATP was purchased from Sigma (Cat. No. A7699-5G) and the two were formulated into 2× working solutions at concentrations of 4 uM and 80 uM. Added 2.5 μl mixture of 2×MBP and ATP, centrifuged at 1000 rpm for 30 seconds, then incubated at 25° C. for 90 minutes. Then added 5 ul of ADP-Glo™ (Promega, Cat. No. V9102) to the assay plate and incubated […] at 25° C. for 60 minutes. Finally, 10 ul of the kinase assay reagent (Promega, Cat. No. V9102) was added to the assay plate, centrifuged at 1000 rpm for 30 seconds at 25° C. for 60 minutes, and the […] intensity was determined.
On the technique in general: ADP-Glo turns the ADP formed in a reaction into a luminescent signal.

For test [1], the system named is pSLP-76(Ser376) in Jurkat E6-1 cells. Briefly: Jurkat E6-1 pSLP-76(Ser376) HTRF experiment. In kind it is cell-based. To be noted: 4 hours compound incubation, anti-human CD3 antibody 20 minutes, Phospho-SLP-76 / SLP-76 HTRF. On the procedure: Jurkat E6-1 cells were purchased from ATCC (Cat. No. TIB-152TM) and cultured overnight with RPMI 1640 containing 0.5% o FBS, after that 20 μL (10^7 cells/mL) cells were added to the experimental plates. Then the test compounds were diluted by three-fold gradient, and 10 different concentrations were prepared, and 5 μl of each was added to the experimental plate, and incubated for 4 hours in 37° C. incubator containing 5% CO2. Then 5 ul of 6× anti-human CD3 antibody (Biolegend, Cat. No. 300432) was added and incubated for 20 minutes in 37° C. incubator containing 5% CO2. Finally, the Phospho-SLP-76 and SLP-76 results were determined using the Cisbio Phospho-SLP-76 and SLP-76 HTRF assay kits (items: 63ADK076PEH and 63ADK077PEH, respectively). Based on the results, the IC50 of the compound is calculated.
On the technique in general: Time-resolved FRET reads energy transfer from a long-lived donor to a nearby acceptor.

Sequence of HPK1 (Q92918 whole entry): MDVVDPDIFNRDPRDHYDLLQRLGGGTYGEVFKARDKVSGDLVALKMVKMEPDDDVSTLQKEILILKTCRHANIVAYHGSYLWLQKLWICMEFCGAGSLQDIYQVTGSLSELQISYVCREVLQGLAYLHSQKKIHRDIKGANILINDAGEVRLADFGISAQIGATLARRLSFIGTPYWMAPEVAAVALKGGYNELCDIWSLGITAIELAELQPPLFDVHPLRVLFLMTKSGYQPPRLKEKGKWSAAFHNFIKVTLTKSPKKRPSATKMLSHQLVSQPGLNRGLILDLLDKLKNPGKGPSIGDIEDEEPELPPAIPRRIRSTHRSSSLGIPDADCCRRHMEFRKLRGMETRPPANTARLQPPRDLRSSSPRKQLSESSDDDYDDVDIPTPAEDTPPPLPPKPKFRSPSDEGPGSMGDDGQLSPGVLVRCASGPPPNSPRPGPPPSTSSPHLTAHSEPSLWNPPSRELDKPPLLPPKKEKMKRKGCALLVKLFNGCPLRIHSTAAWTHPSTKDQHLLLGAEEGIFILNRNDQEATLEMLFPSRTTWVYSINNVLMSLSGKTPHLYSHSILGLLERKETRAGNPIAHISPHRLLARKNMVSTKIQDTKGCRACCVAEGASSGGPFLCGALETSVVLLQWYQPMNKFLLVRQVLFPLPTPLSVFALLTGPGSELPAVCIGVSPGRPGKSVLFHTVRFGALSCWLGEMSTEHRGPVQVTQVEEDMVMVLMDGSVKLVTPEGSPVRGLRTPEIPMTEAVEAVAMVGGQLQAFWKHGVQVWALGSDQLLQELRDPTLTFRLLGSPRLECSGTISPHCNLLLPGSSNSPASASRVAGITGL

Usually IC50 stands for the concentration that inhibits the measured activity by half. As to `CN1CCC(c2ncc(-c3cnc(N)c(OCc4cc(C#CC(C)(C)O)ccc4F)c3)s2)CC1` [A19], the IC50 on HPK1 was below 100 nM; in test [1] it was below 1000 nM.

Consider `CN1CCC(c2ncc(-c3cnc(N)c(OCc4cc(C#CC5(O)CC5)ccc4F)c3)s2)CC1` [A48], for which the results for the IC50 (against HPK1; in test [1]) were below 100 nM and below 1000 nM, respectively.

On to `CN1CCC(c2ncc(-c3cnc(N)c(OCc4ccccc4)c3)s2)CC1` [A2], for which the IC50 against HPK1 was 100 to 1000 nM; in test [1], 1000 to 50000 nM.

As for `CN1CCC(c2ncc(-c3cnc(N)c(OCc4ccc(F)cc4)c3)s2)CC1` [A5], the IC50 was 100 to 1000 nM on HPK1 and 1000 to 50000 nM in test [1].

Regarding `Nc1ncc(-c2cnc(C3CCNCC3)s2)cc1OCc1cc(C#CC2(O)CC2)ccc1F` [A53], the IC50 is below 100 nM on HPK1 and below 1000 nM in test [1].

As to `Cc1ncc(-c2cnc(N)c(OCc3ccncc3)c2)s1` [A35], the results for the IC50 (against HPK1; in test [1]) were 100 to 1000 nM and 1000 to 50000 nM, respectively.

Regarding `Nc1ncc(-c2cnn(C3CCOCC3)c2)cc1OCc1cccc(C#CC2(O)CC2)c1` [A47], the concentration for half-maximal inhibition (IC50) on HPK1 is below 100 nM; in test [1], below 1000 nM.

As to `C#Cc1cc(COc2cc(-c3cnc(C4CCN(C)CC4)s3)cnc2N)ccn1` [A39], the 50% inhibitory concentration (IC50) was below 100 nM against HPK1 and below 1000 nM in test [1].

Take `CN1CCC(c2ncc(-c3cnc(N)c(OCc4ccncc4)c3)s2)CC1` [A1]: the IC50 against HPK1 was below 100 nM; in test [1], below 1000 nM.

As to `CC(C)(O)C#Cc1cccc(COc2cc(-c3cnc(C4CCCCN4)s3)cnc2N)c1` (stereo not shown) [A49], the half-inhibitory concentration (IC50) at HPK1 is below 100 nM; in test [1] it was below 1000 nM.

Take `Nc1ncc(-c2cnc(C3CCOCC3)s2)cc1OCc1cccc(C#CC2(O)CC2)c1` [A50]: the IC50 was below 100 nM at HPK1 and below 1000 nM in test [1].

Regarding `Cc1ccc(C#CC(C)(C)O)cc1COc1cc(-c2cnc(C3CCN(C)CC3)s2)cnc1N` [A60], the IC50 at HPK1 is below 100 nM; in test [1] it was below 1000 nM.

Regarding `CN1CCC(c2ncc(-c3cnc(N)c(OCc4cc(F)cc(C#CC(C)(C)O)c4)c3)s2)CC1` [A57], the values for the IC50 (on HPK1; in test [1]) were below 100 nM and below 1000 nM, respectively.

`CC(C)(O)C#Cc1cccc(COc2cc(-c3cnc(C4CCOCC4)s3)cnc2N)c1` [A23]: the IC50 at HPK1 is below 100 nM; in test [1] it was below 1000 nM.
